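Tested at 5 concentrations; 48 h exposure; 96-well plates; endpoints linearly interpolated, else capped at highest concentration. GI50 = concentration required for 50% inhibition of growth. At the TGI there is no net growth.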 A value given as a limit tells only on which side of the number the result lay.

Among the test systems are SF-268 CNS; SF-539 CNS; KM12 colon; A498 renal; LOX IMVI melanoma; NCI-H522 lung; CCRF-CEM leukemia; IGROV1 ovarian; 786-0 renal.
Holding throughout (test): growth of human tumour cells (NCI), 48 h

On to `O=C(Nc1ccncc1)C(=O)c1cn(S(=O)(=O)c2ccc(Br)cc2)c2ccccc12`, for which the GI50 in the test on SF-268 CNS was 8.47 µM; in the test on SF-539 CNS it was 8.03 µM; in the test on KM12 colon, 3.88 µM; in the test on A498 renal it was 3.17 µM; in the test with LOX IMVI melanoma, 7.49 µM; in the test on NCI-H522 lung, 1.94 µM. Besides, the GI50 in the test on CCRF-CEM leukemia was 7.67 µM; in the test on IGROV1 ovarian, 8.55 µM; in the test with 786-0 renal, 46.3 µM. The TGI with SF-268 CNS, in the test on SF-539 CNS, in the test with KM12 colon, in the test with A498 renal, in the test on LOX IMVI melanoma and in the test with NCI-H522 lung was greater than 100 µM each time. In addition, the TGI in the test on CCRF-CEM leukemia, in the test with IGROV1 ovarian and in the test on 786-0 renal was greater than 100 µM throughout.

On to `CC1=C(C(=O)Nc2ccc([N+](=O)[O-])cc2)C(c2ccco2)C(C(=O)Nc2ccc([N+](=O)[O-])cc2)=C(C)N1`, for which the TGI in the test with SF-268 CNS is greater than 100 µM; with SF-539 CNS, greater than 100 µM; in the test with KM12 colon, 33.9 µM; in the test on A498 renal it was 82 µM; in the test with LOX IMVI melanoma, greater than 100 µM; in the test with NCI-H522 lung, 64.3 µM. Also, the TGI in the test on CCRF-CEM leukemia is 51.2 µM; in the test with IGROV1 ovarian, greater than 100 µM; in the test with 786-0 renal it was greater than 100 µM.

For the compound `CCCCN(CCCC)C(=O)C(=O)CC(=O)c1ccc(Br)cc1`, the TGI with SF-268 CNS, in the test with SF-539 CNS, in the test with KM12 colon, in the test on A498 renal, in the test with LOX IMVI melanoma and with NCI-H522 lung was greater than 100 µM in each case. The TGI in the test on CCRF-CEM leukemia, in the test on IGROV1 ovarian and with 786-0 renal was greater than 100 µM in each case.

As to `O=C1C2=C(c3ccccc31)C(c1ccc(Cl)cc1)N1C(=O)CCSC1=N2` (centres undefined), the TGI in the test with SF-268 CNS, in the test on SF-539 CNS, in the test on KM12 colon, with A498 renal, in the test on NCI-H522 lung and in the test with CCRF-CEM leukemia was greater than 100 µM each time. For the same compound, the TGI in the test with IGROV1 ovarian and with 786-0 renal was greater than 100 µM in each case.

Take `CC12OC(C(=O)C13CC3)C1C(=O)c3ccccc3C(=O)C12` (centres undefined): the GI50 in the test on SF-268 CNS was 19.2 µM; with SF-539 CNS, 24.2 µM; in the test with KM12 colon, 19.9 µM; in the test with NCI-H522 lung, 53.3 µM; with CCRF-CEM leukemia it was 13.9 µM; in the test with IGROV1 ovarian, 23.1 µM. For the same compound, in the test on 786-0 renal, the GI50 was 18.2 µM. Also, the TGI in the test on SF-268 CNS was 46.2 µM; in the test on SF-539 CNS, 54.6 µM; with KM12 colon, 52 µM; with NCI-H522 lung, greater than 100 µM; in the test with CCRF-CEM leukemia, 42.5 µM; in the test on IGROV1 ovarian, 65.9 µM. For the same compound, in the test on 786-0 renal, the TGI was determined as 37.6 µM.

For `COC(=O)Nc1nc2ccc(C(=O)c3ccc[nH]3)cc2[nH]1`, the TGI with SF-268 CNS was greater than 100 µM; in the test on SF-539 CNS, 42.3 µM; in the test with KM12 colon, greater than 100 µM; in the test on A498 renal, greater than 100 µM; in the test on LOX IMVI melanoma, greater than 100 µM; in the test with CCRF-CEM leukemia, 12.7 µM. Also, the TGI in the test on IGROV1 ovarian and in the test with 786-0 renal was greater than 100 µM in each case.

For the compound `CC(=O)c1ccc(Nc2cc(-n3ccnc3)nc3ccccc23)cc1`, the GI50 was 14.8 µM in the test with SF-268 CNS; 40.6 µM in the test on SF-539 CNS; 87.9 µM in the test on NCI-H522 lung; greater than 100 µM in the test on IGROV1 ovarian; 7.86 µM in the test with 786-0 renal. For the same compound, the TGI in the test on SF-268 CNS was 67.7 µM; with SF-539 CNS it was 88.7 µM; in the test with NCI-H522 lung, greater than 100 µM; in the test with IGROV1 ovarian, greater than 100 µM; with 786-0 renal, 41.3 µM.

With `O=C1C2=C(c3ccccc31)C(c1cccc(Cl)c1)NC(=S)N2` (centres undefined), the TGI in the test on SF-268 CNS, with SF-539 CNS, in the test on KM12 colon, in the test with A498 renal, with NCI-H522 lung and in the test with CCRF-CEM leukemia was greater than 100 µM throughout. Besides, the TGI in the test with IGROV1 ovarian and in the test on 786-0 renal was greater than 100 µM throughout.

As to `COc1ccc(/C(=C/c2cc(OC)c(OC)c(OC)c2)[N+](=O)[O-])cc1`, the GI50 in the test on SF-268 CNS was 1.79 µM; in the test on SF-539 CNS, 1.61 µM; with KM12 colon, 1.89 µM; in the test with A498 renal it was 1.76 µM; with LOX IMVI melanoma, 1.62 µM; with NCI-H522 lung, 1.95 µM. Besides, the GI50 in the test on IGROV1 ovarian is 1.8 µM; in the test with 786-0 renal, 1.66 µM. In addition, the TGI in the test with SF-268 CNS is 3.64 µM; in the test with SF-539 CNS, 2.98 µM; in the test with KM12 colon it was 3.99 µM; with A498 renal it was 3.63 µM; in the test on LOX IMVI melanoma, 3.07 µM; with NCI-H522 lung, 3.62 µM. In addition, the TGI with IGROV1 ovarian was 3.94 µM; in the test on 786-0 renal, 3.05 µM.

As to `O/N=C1/C(=C/c2ccc(F)cc2)CCCC1C(NO)c1ccc(F)cc1` (centres undefined), the TGI with SF-268 CNS was greater than 100 µM; in the test on SF-539 CNS, greater than 100 µM; in the test on KM12 colon it was 52.6 µM; with A498 renal, greater than 100 µM; with NCI-H522 lung, 42.5 µM; with CCRF-CEM leukemia, greater than 100 µM. In addition, the TGI in the test on IGROV1 ovarian and in the test with 786-0 renal was greater than 100 µM in each case.

For `Cc1ccc(-c2c(C#N)c(N)nc(N3CCOCC3)c2C#N)o1`, the GI50 was greater than 100 µM in the test with SF-268 CNS; 48.3 µM with SF-539 CNS; 46.6 µM with KM12 colon; 15.5 µM with A498 renal; 36.4 µM in the test with NCI-H522 lung; 36.2 µM in the test with CCRF-CEM leukemia. The GI50 in the test with IGROV1 ovarian was 21.6 µM; in the test with 786-0 renal, 19.1 µM. Also, the TGI in the test on SF-268 CNS is greater than 100 µM; in the test with SF-539 CNS it was greater than 100 µM; with KM12 colon, greater than 100 µM; with A498 renal, 54.4 µM; with NCI-H522 lung, greater than 100 µM; with CCRF-CEM leukemia, greater than 100 µM. The TGI in the test with IGROV1 ovarian is 59.6 µM; in the test on 786-0 renal, 57.9 µM.

Regarding `OB([O][Hg][c]1ccccc1)[O][Hg][c]1ccccc1`, the GI50 in the test on SF-268 CNS is 1.06 µM; in the test on SF-539 CNS, 1.09 µM; in the test with KM12 colon, 1.59 µM; in the test on A498 renal, 0.98 µM; with LOX IMVI melanoma it was 0.173 µM; in the test with NCI-H522 lung it was 0.0279 µM. Besides, the GI50 with IGROV1 ovarian is 0.0949 µM; with 786-0 renal, 0.281 µM. The TGI came to 2.5 µM in the test on SF-268 CNS; 2.34 µM in the test with SF-539 CNS; 3.04 µM with KM12 colon; 2.48 µM with A498 renal; 0.366 µM in the test with LOX IMVI melanoma; 0.0752 µM with NCI-H522 lung. For the same compound, the TGI in the test with IGROV1 ovarian worked out at 0.401 µM; with 786-0 renal, 0.856 µM.

For the compound `C1=CN2C[n+]3cccc(OCc4ccccc4)c3N=C2C(OCc2ccccc2)=C1`, the TGI is greater than 100 µM in the test with SF-268 CNS; 26.7 µM in the test with SF-539 CNS; greater than 100 µM in the test on A498 renal; 86 µM in the test on LOX IMVI melanoma; 15.8 µM in the test with NCI-H522 lung; 27.7 µM in the test with IGROV1 ovarian. Moreover, in the test with 786-0 renal, the TGI was greater than 100 µM.

As for `CCOC(=O)c1cccc(=O)c(C(=O)OCC)c1`, the TGI is 75.9 µM in the test on SF-539 CNS; greater than 100 µM in the test on KM12 colon; greater than 100 µM in the test on A498 renal; 65.9 µM with CCRF-CEM leukemia; greater than 100 µM with IGROV1 ovarian; greater than 100 µM with 786-0 renal.

For the compound `S=c1[nH]nc(COc2ccc(Cl)cc2)o1`, the TGI in the test with SF-268 CNS, in the test with SF-539 CNS, with KM12 colon, in the test with A498 renal, in the test with NCI-H522 lung and in the test with CCRF-CEM leukemia was greater than 100 µM throughout. Further, the TGI with IGROV1 ovarian and in the test with 786-0 renal was greater than 100 µM in each case.

Turning to `COc1ccc(-c2oc3cc(O)c(OC)c(O)c3c(=O)c2OC2OC(CO)C(O)C(O)C2O)cc1` (centres undefined), the TGI in the test with SF-539 CNS, in the test on KM12 colon, in the test on LOX IMVI melanoma, in the test with CCRF-CEM leukemia, in the test on IGROV1 ovarian and in the test with 786-0 renal was greater than 100 µM throughout.

Regarding `CC(=O)[CH-]C(=O)c1ccccc1.CC(=O)[CH-]C(=O)c1ccccc1.CCN(CC)CC[O-].CCN(CC)CC[O-].Cl.[Ti+4]`, the GI50 in the test with SF-268 CNS is 35.2 µM; with SF-539 CNS it was 27.2 µM; in the test on KM12 colon, 20 µM; in the test with A498 renal it was 26.2 µM; in the test with LOX IMVI melanoma it was 43.4 µM; in the test on NCI-H522 lung, 17.1 µM. Also, the figures for the GI50 in the test on IGROV1 ovarian and in the test on 786-0 renal were 45.8 µM and 45.5 µM, respectively. The TGI with SF-268 CNS was greater than 100 µM; in the test with SF-539 CNS, 76.5 µM; in the test with KM12 colon, 59.6 µM; in the test on A498 renal, 72.5 µM; with LOX IMVI melanoma, greater than 100 µM; in the test with NCI-H522 lung, 43 µM. The TGI in the test on IGROV1 ovarian and with 786-0 renal was greater than 100 µM each time.

Regarding `O=[N+]([O-])c1ccc(N/N=C\c2cc(Cl)ccc2O)nc1`, the GI50 with SF-268 CNS is 0.595 µM; in the test with SF-539 CNS it was 3.02 µM; in the test on KM12 colon, 1.06 µM; in the test on A498 renal it was 17 µM; in the test on LOX IMVI melanoma it was 0.457 µM; in the test with CCRF-CEM leukemia it was 0.386 µM. The GI50 is 1.2 µM in the test with IGROV1 ovarian and 2.18 µM in the test with 786-0 renal. Further, the TGI in the test with SF-268 CNS is 22.9 µM; in the test on SF-539 CNS it was greater than 100 µM; in the test with KM12 colon it was greater than 100 µM; in the test on A498 renal, greater than 100 µM; in the test with LOX IMVI melanoma it was 8.47 µM; in the test with CCRF-CEM leukemia, greater than 100 µM. Besides, the TGI with IGROV1 ovarian was 4.69 µM; in the test on 786-0 renal it was 11.2 µM.

(Values after PubChem BioAssay (NCI).)
